Like-named read-outs stand apart in the source and are kept apart here. A value given as a limit tells only on which side of the number the result lay.

The term % Inhibition denotes the percentage by which the read-out fell short of the control. Low values mean a response near the control, high ones a response far below the control.

The subject of series [1] is Plutella xylostella eggs. The series can be described thus: whole plant or invertebrate. It is filed as in vivo. How it is done:
The ovicidal efficacy of 2-acetyl-1-tetralone was also tested against Plutella eggs.

Series [2] has as its system lice eggs. Description: whole plant or invertebrate. To be noted: for inhibition at 10000 µM: Pediculus humanus, read-out: Ovicidal activity %; for Activity class 0 = inactive 1 = low 2 = med 3 = high: listed as of 10 mM. Format: in vivo.
Series [3] deals with Helicoverpa armigera eggs. Description: Egg hatching of Helicoverpa armigera. To be noted: for Number hatched / Number unhatched / % Inhibition: Table 13; for % Inhibition: relative to the control (100% MeOH).
In series [4] the test system is head lice eggs. The series can be described thus: Head lice egg hatching with formulated compound. Format: in vivo. To be noted: 20 mM formulation, 10 minutes exposure, n=10 eggs. How it is done:
Gravid female lice were permitted to lay eggs. The eggs were counted, inspected under a light microscope and all eggs that appeared undamaged were allocated to one of two treatment groups. One group was exposed to 5′-dimethyl-2,2′-dipyridyl in a formulation, while the second group was exposed to the formulation only. The protocol was as follows:
Treatments: 5'-dimethyl-2,2'dipyridyl (20mM) n=10
Vehicle control only n=10
Exposure time: 10 minutes
Wash time: 1 minute @˜37° C.
Incubation: All eggs were placed at 31° C. in a humid incubator and monitored for signs of development specifically of the eye and subsequent hatching, see Table 21.

Setting [5] is: Plutella (P), listed as of 10 mM.
Where [6] appears, read: Plutella xylostella, Plutella (P), 10 mM, read-out: Ovicidal activity %.
The mark [7] stands for this setting: Plutella (P), listed as of 1 mM.
Where [8] appears, read: Table 17, eggs laid on cloth, 1 mM in 1% diethoxyglycol.
[9] abbreviates: Plutella xylostella, read-out: Ovicidal activity %.
Where [10] appears, read: Table 10, eggs laid on cloth, 1 mM.
Setting [11] is: Table 10, eggs laid on cloth, 10 mM.
[12] abbreviates: Table 11, eggs laid on parafilm, 1 mM.
[13] abbreviates: Table 11, eggs laid on parafilm, 10 mM.
[14] abbreviates: Table 14, 10 mM, dipped approximately 2 seconds, eggs on fine cloth.

Turning to `CCOC(=O)CNC(C)=O` [Ethyl-acetaimidoacetate], the Ovicidal activity % in series [1] (Plutella (P), 10 mM) was 0.00%. In addition, in series [1] (setting [5]), the “Activity class 0 = inactive 1 = low 2 = med 3 = high” value is 0 (A pLD50 value less than 2 is considered inactive (Class 0)).
`O=C(CC(=O)c1ccc(Cl)cc1)c1ccccc1` [1-(4-Chloro-phenyl)-3-phenyl-propane-1,3-dione]: the inhibition at 10000 µM in series [2] (Lice (L), 10 mM) came to 0%.
Regarding `Cc1cc(C)cc(C(=O)CC(=O)c2cc(C)cc(C)c2)c1` [1,3-Bis-(3,5-dimethyl-phenyl)-propane-1,3-dione], the inhibition at 10000 µM in series [1] (setting [6]) was 0%. For the same compound, in series [1] (in vivo), the “Logit calc pLD50” value was 0.7 and the “Pref pLD50” value is under 2.
In turn, `Cc1nc(-c2nc(C)c(C)[nH]2)[nH]c1C` [2,2′-Bis(4,5-dimethylimidazole)] showed an Ovicidal activity % in series [2] (Lice (L), 10 mM) of 0.00%. Besides, in series [2] (Lice (L)), the “Activity class 0 = inactive 1 = low 2 = med 3 = high” value is 0 (A pLD50 value less than 2 is considered inactive (Class 0)).
Consider `c1ccc(-c2cccc(-c3ccccn3)n2)nc1` [2,2′,6,2″-terpyridine], for which the Ovicidal activity % in series [2] (Lice (L), 10 mM) stood at 0.00%; in series [1] (Plutella (P), 1 mM), 100%. Further, the entries for the “Activity class 0 = inactive 1 = low 2 = med 3 = high” value in series [2] (Lice (L)) and in series [1] (setting [7]) were 0 (A pLD50 value less than 2 is considered inactive (Class 0)) and 3 (a pLD50 greater than 4 is considered strongly active (Class 3)), respectively. Besides, the “inhibition of Plutella egg hatching” value in series [1] (1 mM, 1% diethoxyglycol) was “complete inhibition”. The Number hatched in series [1] (setting [8]) amounted to 0. The compound also registered a Number unhatched in series [1] (setting [8]) of 46. In addition, the “% Inhibition” value in series [1] (Table 17, 1 mM, relative to control (1% diethoxyglycol)) was determined as 100%.
As for `O=C(CC(=O)c1ccccc1)c1ccccc1` [Dibenzoyl methane], in series [1] (setting [9]), the inhibition at 10000 µM was determined as 90%.
Consider `CCCC(N)CO` [D-L-2-Amino-1-pentanol], for which the Ovicidal activity % in series [1] (Plutella (P), 10 mM) is 0.00%. In addition, the “Activity class 0 = inactive 1 = low 2 = med 3 = high” value in series [1] (setting [5]) was 0 (A pLD50 value less than 2 is considered inactive (Class 0)). In series [1] (in vivo), the “Logit calc pLD50” value is reported as 0.7 and the “Pref pLD50” value is under 2.
As for `Cc1ccnc(-c2cc(C)ccn2)c1` [4,4′-dimethyl-2,2′-dipyridyl], the “effect on egg hatching of Helicoverpa armigera (words)” value in series [3] (1 mM) and in series [3] (10 mM) was “significant inhibition of egg hatching” each time. Also, the Number hatched in series [3] (1 mM) was 23; in series [3] (10 mM), 8; in series [1] (setting [10]), 0; in series [1] (setting [11]) it was 0; in series [1] (setting [12]), 10; in series [1] (setting [13]), 0. The Number unhatched in series [3] (1 mM) is given as 29; in series [3] (10 mM), 43; in series [1] (setting [10]), 30; in series [1] (setting [11]), 36; in series [1] (setting [12]), 107; in series [1] (setting [13]), 139. In addition, the “% Inhibition” value worked out at 66% in series [3] (1 mM); 84% in series [3] (10 mM); 100% in series [1] (Table 10, eggs laid on cloth, 1 mM, relative to controls); 100% in series [1] (Table 10, eggs laid on cloth, 10 mM, relative to controls); 91% in series [1] (Table 11, eggs laid on parafilm, 1 mM, relative to controls); 100% in series [1] (Table 11, eggs laid on parafilm, 10 mM, relative to controls). For the same compound, the “effect on egg hatching of Plutella xylostella (words)” value in series [1] (10 and 1 mM) was “significantly inhibit egg hatching”. For the same compound, the Ovicidal activity % in series [1] (Plutella (P), 0.1 mM) came to 65.00%; in series [1] (Plutella (P), 1 mM) it was 100.00%; in series [1] (Plutella (P), 10 mM), 100.00%. The “Activity class 0 = inactive 1 = low 2 = med 3 = high” value in series [1] (setting [7]) is 3 (a pLD50 greater than 4 is considered strongly active (Class 3)).
With `COc1ccc(C(=O)CC(=O)c2ccc(OC)cc2)cc1` [1,3-Bis-(4-methoxy-phenyl)-propane-1,3-dione], the inhibition at 10000 µM in series [1] (setting [6]) stood at 0%. In series [1] (in vivo), the “Logit calc pLD50” value was 0.7 and the “Pref pLD50” value was under 2.
As to `c1ccc(-c2ccc3ccccc3n2)nc1` [2-(2-pyridinyl)quinoline], in series [1] (10 mM), the “effect on egg hatching of Plutella xylostella (words)” value is on record as “able to inhibit egg hatching”. Also, the inhibition at 10000 µM in series [1] (setting [6]) was found to be 100%. Also, in series [1] (Plutella xylostella, Table 14, 10 mM, relative to control (100% ETOH), read-out: % Inhibition), the inhibition at 10000 µM came out at 96%. In addition, in series [1] (setting [14]), the Number hatched stood at 2 and the Number unhatched turned out to be 56. In addition, in series [1] (in vivo), the “Logit calc pLD50” value is given as 3.3 and the “Pref pLD50” value is reported as over 2.
On to `CC(=O)CC(=O)c1ccccc1` [Benzoylacetone], for which the inhibition at 1000 µM in series [1] (Plutella xylostella, Plutella (P), 1 mM, read-out: Ovicidal activity %) was 0%. Moreover, the inhibition at 10000 µM in series [1] (setting [6]) came to 90%.
As for `NCC(O)c1ccccc1` (stereo not shown) [2-Amino-1-phenyl ethanol], in series [1] (in vivo), the Ovicidal activity % is on record as 0.00%.
`O=C(CC(=O)c1cccnc1)c1cccnc1` [1,3-dipyridin-3-yl-propane-1,3-dione]: in series [1] (setting [6]), the inhibition at 10000 µM was 0%. Besides, in series [1] (in vivo), the “Logit calc pLD50” value is on record as 0.7 and the “Pref pLD50” value is reported as under 2.
`N[C@@H]1CCCC[C@H]1O` (relative stereo) [Trans-2-aminocyclohexanol]: the inhibition at 10000 µM in series [1] (setting [9]) was 0%.
Take `CC(=O)NO` [Acetohydroxamic acid]: in series [1] (setting [6]), the inhibition at 10000 µM turned out to be 0%. Moreover, in series [1] (in vivo), the “Logit calc pLD50” value is given as 0.7 and the “Pref pLD50” value is on record as under 2.
`CC(=O)C1CCCCC1=O` (stereo not shown) [2-Acetylcyclohexanone]: the inhibition at 10000 µM in series [1] (setting [6]) stood at 0%. Moreover, in series [1] (in vivo), the “Logit calc pLD50” value is on record as 0.7 and the “Pref pLD50” value is under 2.
Regarding `COC(=O)c1ccc(-c2ccc(C(=O)OC)cn2)nc1` [2,2′ Bipyridinyl-5,5′-dicarboxylic acid dimethyl ester], the “Activity class 0 = inactive 1 = low 2 = med 3 = high” value in series [2] (Lice (L)) is 0 (A pLD50 value less than 2 is considered inactive (Class 0)). Besides, the inhibition at 10000 µM in series [2] (Lice (L), 10 mM) is 0%.
As for `Cc1ccc(-c2ccc(C)cn2)nc1` [Ha44], the “Stage of development: number of eggs with eye development” value in series [4] (Day 1), in series [4] (Day 4), in series [4] (Day 5), in series [4] (Day 6), in series [4] (Day 7) and in series [4] (Day 12) was 1 eye development throughout. The “Stage of development: number of eggs with no eye dev.” value in series [4] (Day 1) was found to be 9 no eye dev; in series [4] (Day 4) it was 8 no eye dev; in series [4] (Day 5), 8 no eye dev; in series [4] (Day 6), 8 no eye dev; in series [4] (Day 7), 8 no eye dev; in series [4] (Day 12), 8 no eye dev. The “Stage of development: number of eggs hatched” value in series [4] (Day 4) was 1 hatched.
Turning to `Cc1ccccn1` [2-Picoline], the “Activity class 0 = inactive 1 = low 2 = med 3 = high” value in series [2] (Lice (L)) was 0 (A pLD50 value less than 2 is considered inactive (Class 0)). Moreover, the inhibition at 10000 µM in series [2] (Lice (L), 10 mM) was found to be 0%.
Take `c1ccc(CNCc2ccccn2)nc1` [Di(2-picolyl) amine]: the “Activity class 0 = inactive 1 = low 2 = med 3 = high” value in series [2] (Lice (L)) was 0 (A pLD50 value less than 2 is considered inactive (Class 0)). For the same compound, in series [2], the inhibition at 10000 µM was found to be 0%.
`O=C(NO)c1ccccc1` [Benzohydroxaminic acid] came in with an Ovicidal activity % in series [1] (Plutella (P), 10 mM) of 0.00%. The “Activity class 0 = inactive 1 = low 2 = med 3 = high” value in series [1] (setting [5]) was 0 (A pLD50 value less than 2 is considered inactive (Class 0)).
Take `CC(C)(C)c1ccc(C(=O)CC(=O)c2ccc(C(C)(C)C)cc2)cc1` [1,3-Bis-(4-tert-butyl-phenyl)-propane-1,3-dione]: in series [1] (setting [6]), the inhibition at 10000 µM stood at 0%. In addition, in series [1] (in vivo), the “Logit calc pLD50” value was 0.7 and the “Pref pLD50” value is recorded as under 2.
In the same order, the values of `COC(=O)CN` [Glycine methyl ester] are 0%, 0.7 and under 2.
For the compound `c1ccc(Nc2ccccn2)nc1` [2,2-dipyridylamine], the Ovicidal activity % in series [1] (Plutella (P), 1 mM) is listed as 0.00%; in series [1] (Plutella (P), 10 mM) it was 100%. Besides, the “Activity class 0 = inactive 1 = low 2 = med 3 = high” value in series [1] (setting [7]) was 0 (A pLD50 value less than 2 is considered inactive (Class 0)); in series [1] (setting [5]), 1 (a pLD50 value between 2 and 3 is considered weakly active (Class 1)).

Values taken from patent US20070254907A1, “COMPOSITIONS AND METHODS FOR CONTROLLING INFESTATION” (HATCHTECH PTY LTD, priority 2003, published 2007).
